Data reported in ChEMBL document CHEMBL4842368, “Berotralstat (BCX7353): Structure-Guided Design of a Potent, Selective, and Oral Plasma Kallikrein Inhibitor to Prevent Attacks of Hereditary Angioedema (HAE)” (J Med Chem, 2021).
In brackets after ≈: the same amount, converted by molar mass. Blank lines part the entries; values can stand above or below the compound they belong to.

Columns and labels:
[1] = biological target: T1, Plasma kallikrein (Homo sapiens, UniProt P03952); assay: Inhibition of purified human plasma kallikrein using H-D-Pro-Phe-Arg-pNA.2HCl as substrate measured after 3 mins by microplate reader analysis
T1 sequence (P03952 20-390 limits assumed): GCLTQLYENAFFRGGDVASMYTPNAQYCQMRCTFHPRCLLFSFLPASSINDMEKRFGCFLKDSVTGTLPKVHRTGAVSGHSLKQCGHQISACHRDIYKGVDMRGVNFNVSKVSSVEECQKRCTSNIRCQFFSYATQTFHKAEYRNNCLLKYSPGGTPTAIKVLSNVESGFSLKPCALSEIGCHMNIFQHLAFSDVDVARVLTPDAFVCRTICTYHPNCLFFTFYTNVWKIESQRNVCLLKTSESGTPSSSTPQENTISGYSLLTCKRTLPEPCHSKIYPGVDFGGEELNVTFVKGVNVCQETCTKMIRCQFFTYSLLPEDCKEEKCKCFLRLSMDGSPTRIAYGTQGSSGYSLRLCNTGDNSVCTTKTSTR
T1 sequence (P03952 391-638 limits assumed): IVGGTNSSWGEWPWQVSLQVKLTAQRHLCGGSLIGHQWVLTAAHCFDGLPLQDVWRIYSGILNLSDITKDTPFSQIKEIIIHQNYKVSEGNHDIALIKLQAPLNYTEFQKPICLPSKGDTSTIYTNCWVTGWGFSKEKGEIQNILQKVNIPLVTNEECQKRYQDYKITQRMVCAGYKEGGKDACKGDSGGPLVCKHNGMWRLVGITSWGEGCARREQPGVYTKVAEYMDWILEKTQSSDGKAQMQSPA

[2] = biological target: T1, Plasma kallikrein; assay: Inhibition of purified human plasma kallikrein using H-D-Pro-Phe-Arg-pNA.2HCl as substrate at 5 uM measured after 3 mins by microplate reader analysis relative to control
[3] = biological target: T1, Plasma kallikrein; assay: Inhibition of endogenous human plasma kallikrein using Z-Phe-Arg-AMC.HCl as substrate measured after 5 mins by microplate reader analysis
[4] = Plasma concentration in rat at 10 mg/kg, po after 24 hrs; assay type: ADME, organism-based
[5] = AUC in rat at 10 mg/kg, po after 24 hrs; assay type: ADME, organism-based; parameters: route oral, time 24 hrs, dose 10 mg/kg; conditions: in vivo
[6] = Cmax in rat at 10 mg/kg, po; assay type: ADME, organism-based; parameters: route oral, dose 10 mg/kg; conditions: in vivo
[7] = Cmax in monkey at 2.5 mg/kg, iv; assay type: ADME, organism-based, Macaca mulatta; parameters: route intravenous, dose 2.5 mg/kg; conditions: rhesus monkey, in vivo
[8] = biological target: T2, Complement C1s subcomponent (Homo sapiens, UniProt P09871); assay: Inhibition of human C1s using […] as substrate measured immediately by plate reader analysis
T2 sequence (P09871 whole entry): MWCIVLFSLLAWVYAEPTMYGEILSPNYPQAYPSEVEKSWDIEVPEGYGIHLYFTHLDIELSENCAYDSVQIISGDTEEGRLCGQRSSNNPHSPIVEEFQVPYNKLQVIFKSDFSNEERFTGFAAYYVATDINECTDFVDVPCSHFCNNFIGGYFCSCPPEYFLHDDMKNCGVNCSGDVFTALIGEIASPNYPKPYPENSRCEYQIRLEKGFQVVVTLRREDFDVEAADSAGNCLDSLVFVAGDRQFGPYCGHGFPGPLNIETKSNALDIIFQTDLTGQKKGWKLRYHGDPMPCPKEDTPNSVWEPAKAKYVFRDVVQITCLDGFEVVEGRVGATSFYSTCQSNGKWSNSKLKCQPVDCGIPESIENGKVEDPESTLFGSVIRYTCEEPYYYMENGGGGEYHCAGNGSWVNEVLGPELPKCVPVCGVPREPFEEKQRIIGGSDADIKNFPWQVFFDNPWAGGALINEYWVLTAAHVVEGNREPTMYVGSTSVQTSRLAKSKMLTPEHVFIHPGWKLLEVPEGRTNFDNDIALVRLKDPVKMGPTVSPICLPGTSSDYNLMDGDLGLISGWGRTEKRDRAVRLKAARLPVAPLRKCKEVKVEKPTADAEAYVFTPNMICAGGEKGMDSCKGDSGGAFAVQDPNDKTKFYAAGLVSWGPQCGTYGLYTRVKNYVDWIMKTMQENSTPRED

[9] = Oral bioavailability in rat at 30 mg/kg; assay type: ADME, organism-based; conditions: in vivo
[10] = Tmax in monkey at 25 mg/kg, po; assay type: ADME, organism-based, Macaca mulatta; conditions: rhesus monkey, in vivo
[11] = AUC(0 to 24 hrs) in monkey at 25 mg/kg, po; assay type: ADME, organism-based, Macaca mulatta; parameters: time < 24 hr, route oral, dose 25 mg/kg; conditions: rhesus monkey, in vivo
[12] = AUC(0 to 24 hrs) in rat at 3 mg/kg, iv; assay type: ADME, organism-based; parameters: time < 24 hr, route intravenous, dose 3 mg/kg; conditions: in vivo
[13] = biological target: Prothrombin (Homo sapiens, UniProt P00734); assay: Inhibition of human thrombin using Nalpha-Benzoyl-Phe-Val-Arg p-nitroaniline as substrate measured after 5 mins by plate reader analysis
[14] = biological target: Coagulation factor X (Homo sapiens, UniProt P00742); assay: Inhibition of human factor 10a using N-a-Benzyloxycarbonyl-D-arginyl-L-glycyl-L-arginine-pnitroaniline-dihydrochloride as substrate measured after 5 mins by plate reader analysis
Coagulation factor X, sequence (P00742 41-179 limits assumed): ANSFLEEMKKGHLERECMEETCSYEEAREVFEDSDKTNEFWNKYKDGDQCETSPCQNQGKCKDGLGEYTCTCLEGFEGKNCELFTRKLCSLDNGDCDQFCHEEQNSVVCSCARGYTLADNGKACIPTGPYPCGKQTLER
Coagulation factor X, sequence (P00742 235-488 limits assumed): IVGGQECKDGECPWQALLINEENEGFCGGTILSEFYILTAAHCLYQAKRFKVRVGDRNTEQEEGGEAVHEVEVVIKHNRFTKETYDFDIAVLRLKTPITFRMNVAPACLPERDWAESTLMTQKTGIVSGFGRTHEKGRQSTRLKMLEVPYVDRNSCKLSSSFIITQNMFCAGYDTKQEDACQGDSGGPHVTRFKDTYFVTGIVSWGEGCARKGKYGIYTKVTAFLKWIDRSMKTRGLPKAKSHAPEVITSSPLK

[15] = AUC(0 to 96 hrs) in rat at 30 mg/kg, po; assay type: ADME, organism-based; parameters: time < 96 hr, route oral, dose 30 mg/kg; conditions: in vivo
[16] = Half life in rat at 3 mg/kg, iv; assay type: ADME, organism-based; conditions: in vivo
[17] = Cmax in monkey at 25 mg/kg, po; assay type: ADME, organism-based, Macaca mulatta; parameters: route oral, dose 25 mg/kg; conditions: rhesus monkey, in vivo
[18] = Solubility of compound at pH 4; assay type: physicochemical; conditions: buffer
[19] = biological target: Plasminogen (Homo sapiens, UniProt P00747); assay: Inhibition of human plasmin using Z-Lys-SBzl as substrate measured immediately by plate reader analysis
Plasminogen, sequence (P00747 97-580 limits assumed): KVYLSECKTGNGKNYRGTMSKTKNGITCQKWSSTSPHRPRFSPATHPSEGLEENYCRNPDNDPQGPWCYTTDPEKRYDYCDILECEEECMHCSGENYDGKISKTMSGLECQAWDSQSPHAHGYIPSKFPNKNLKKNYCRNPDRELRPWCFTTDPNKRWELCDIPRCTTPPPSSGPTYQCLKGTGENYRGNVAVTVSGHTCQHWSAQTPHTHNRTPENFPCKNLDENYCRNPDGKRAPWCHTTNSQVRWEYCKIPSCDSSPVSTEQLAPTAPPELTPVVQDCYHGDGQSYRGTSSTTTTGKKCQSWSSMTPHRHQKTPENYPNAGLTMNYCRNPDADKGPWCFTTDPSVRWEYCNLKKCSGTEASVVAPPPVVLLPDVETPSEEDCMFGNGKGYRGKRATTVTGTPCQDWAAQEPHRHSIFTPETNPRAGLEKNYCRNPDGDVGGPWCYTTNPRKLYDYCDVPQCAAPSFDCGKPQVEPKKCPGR
Plasminogen, sequence (P00747 581-810 limits assumed): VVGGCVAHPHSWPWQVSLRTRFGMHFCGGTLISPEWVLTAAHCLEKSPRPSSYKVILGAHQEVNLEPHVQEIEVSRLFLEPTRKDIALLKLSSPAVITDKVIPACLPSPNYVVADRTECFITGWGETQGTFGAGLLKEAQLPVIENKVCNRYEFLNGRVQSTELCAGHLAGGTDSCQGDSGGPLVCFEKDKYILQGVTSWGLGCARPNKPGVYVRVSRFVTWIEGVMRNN

[20] = biological target: T3, Coagulation factor XII (Homo sapiens, UniProt P00748); assay: Inhibition of human factor 12a using D-prolyl-L-phenylalanyl-L-arginine-p-nitroaniline as substrate measured after 5 mins by plate reader analysis
T3 sequence (P00748 whole entry): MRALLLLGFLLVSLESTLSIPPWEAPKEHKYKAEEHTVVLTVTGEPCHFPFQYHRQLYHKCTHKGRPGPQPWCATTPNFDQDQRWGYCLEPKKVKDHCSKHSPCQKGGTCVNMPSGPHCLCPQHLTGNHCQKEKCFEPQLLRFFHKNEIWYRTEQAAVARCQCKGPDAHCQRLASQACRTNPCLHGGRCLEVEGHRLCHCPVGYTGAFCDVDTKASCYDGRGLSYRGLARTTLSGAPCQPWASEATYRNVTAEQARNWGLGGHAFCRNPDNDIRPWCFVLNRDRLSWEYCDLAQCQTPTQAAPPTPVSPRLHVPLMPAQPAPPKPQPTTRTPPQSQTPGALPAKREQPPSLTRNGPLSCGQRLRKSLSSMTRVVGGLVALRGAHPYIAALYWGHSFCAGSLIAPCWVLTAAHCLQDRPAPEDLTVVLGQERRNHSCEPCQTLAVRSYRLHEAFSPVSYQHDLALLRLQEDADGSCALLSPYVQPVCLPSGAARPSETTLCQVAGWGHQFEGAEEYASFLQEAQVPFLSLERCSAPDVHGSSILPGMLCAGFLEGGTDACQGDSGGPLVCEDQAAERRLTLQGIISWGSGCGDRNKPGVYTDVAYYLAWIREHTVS

[21] = AUC(0 to 24 hrs) in rat at 30 mg/kg, po; assay type: ADME, organism-based; parameters: time < 24 hr, route oral, dose 30 mg/kg; conditions: in vivo
[22] = biological target: Tissue-type plasminogen activator (Homo sapiens, UniProt P00750); assay: Inhibition of recombinant human tPA using H-D-Isoleucyl-L-prolyl-L-arginine p-nitroaniline dihydrochloride as substrate measured after 5 mins by plate reader analysis
Tissue-type plasminogen activator, sequence (P00750 whole entry): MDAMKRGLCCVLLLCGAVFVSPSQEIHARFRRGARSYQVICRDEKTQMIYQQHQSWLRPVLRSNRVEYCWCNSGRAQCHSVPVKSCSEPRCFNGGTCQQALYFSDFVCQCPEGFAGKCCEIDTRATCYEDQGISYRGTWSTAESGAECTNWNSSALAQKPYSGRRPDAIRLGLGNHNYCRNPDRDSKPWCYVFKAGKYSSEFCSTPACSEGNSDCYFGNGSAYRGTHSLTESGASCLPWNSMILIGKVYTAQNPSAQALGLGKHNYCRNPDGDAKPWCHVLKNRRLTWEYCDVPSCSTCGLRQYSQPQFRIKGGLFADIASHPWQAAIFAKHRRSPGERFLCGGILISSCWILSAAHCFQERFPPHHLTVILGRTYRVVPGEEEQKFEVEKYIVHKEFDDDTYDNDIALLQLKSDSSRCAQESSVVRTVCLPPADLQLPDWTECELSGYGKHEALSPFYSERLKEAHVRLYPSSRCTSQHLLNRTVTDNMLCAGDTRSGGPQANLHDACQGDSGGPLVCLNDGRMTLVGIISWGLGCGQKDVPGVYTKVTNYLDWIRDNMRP

[23] = Half life in monkey at 25 mg/kg, po; assay type: ADME, organism-based, Macaca mulatta; conditions: rhesus monkey, in vivo
[24] = Clearance in rat at 3 mg/kg, iv; assay type: ADME, organism-based; conditions: in vivo
[25] = Half life in rat at 30 mg/kg, po; assay type: ADME, organism-based; conditions: in vivo
[26] = Cmax in rat at 30 mg/kg, po; assay type: ADME, organism-based; parameters: route oral, dose 30 mg/kg; conditions: in vivo
[27] = Clearance in rat at 30 mg/kg, po; assay type: ADME, organism-based; conditions: in vivo
[28] = Tmax in rat at 30 mg/kg, po; assay type: ADME, organism-based; conditions: in vivo
[29] = Oral bioavailability in monkey at 25 mg/kg; assay type: ADME, organism-based, Macaca mulatta; conditions: rhesus monkey, in vivo
[30] = biological target: Trypsin (Homo sapiens, UniProt P07477+P07478+P35030); assay: Inhibition of human trypsin using Nalpha-Benzoyl-L-Arginine p-nitroaniline as substrate measured after 5 mins by plate reader analysis; assay type: protein assay
[31] = Clearance in monkey at 2.5 mg/kg, iv; assay type: ADME, organism-based, Macaca mulatta; conditions: rhesus monkey, in vivo
[32] = Solubility of compound at pH 7; assay type: physicochemical; conditions: buffer
[33] = AUC(0 to 24 hrs) in monkey at 2.5 mg/kg, iv; assay type: ADME, organism-based, Macaca mulatta; parameters: time < 24 hr, route intravenous, dose 2.5 mg/kg; conditions: rhesus monkey, in vivo
[34] = Clearance in monkey at 25 mg/kg, po; assay type: ADME, organism-based, Macaca mulatta; conditions: rhesus monkey, in vivo
[35] = Cmax in rat at 3 mg/kg, iv; assay type: ADME, organism-based; parameters: route intravenous, dose 3 mg/kg; conditions: in vivo
[36] = Half life in monkey at 2.5 mg/kg, iv; assay type: ADME, organism-based, Macaca mulatta; conditions: rhesus monkey, in vivo
[37] = AUC(0 to 96 hrs) in rat at 3 mg/kg, iv; assay type: ADME, organism-based; parameters: time < 96 hr, route intravenous, dose 3 mg/kg; conditions: in vivo

SMILES: NCc1cccc(-n2nc(C(F)(F)F)cc2C(=O)Nc2ccccc2F)c1
IC50 [1]: 27.3 µM

IC50 [1]: 3400 µM
SMILES: NCc1cccc(-n2cccn2)c1

IC50 [1]: 0.149 µM
SMILES: NCc1cccc(-n2nc(C(F)(F)F)cc2C(=O)Nc2cccc(C(O)c3ccccc3)c2F)c1 (stereo not drawn)

inhibition [2]: 7.5%
SMILES: NCc1cccc(-n2nc(C(F)(F)F)cc2C(=O)Nc2ccc(N3CCCCC3)cc2F)c1

SMILES: NCc1cccc(-n2nc(C(F)(F)F)cc2C(=O)Nc2ccc(-c3ccc(C(N)=O)cc3)cc2F)c1
IC50 [1]: 0.395 µM

IC50 [1]: 0.71 µM
SMILES: NCc1cccc(-n2nc(C(F)(F)F)cc2C(=O)Nc2cc(C(O)c3ccccc3)ccc2F)c1 (stereo not drawn)

IC50 [1]: 0.134 µM | IC50 [3]: 1.28 µM
SMILES: CCOC(c1ccccc1)c1ccc(F)c(NC(=O)c2cc(C(F)(F)F)nn2-c2cccc(CN)c2)c1 (stereo not drawn)

concentration at 24 h [4]: 30 ng/mL | AUC at 24 h [5]: 1490 ng·h/mL | Cmax [6]: 133 ng/mL
SMILES: NCc1cccc(-n2nc(C(F)(F)F)cc2C(=O)Nc2cc(C(NCC3CC3)c3ccccc3)ccc2F)c1 (single isomer, unassigned; (-))

IC50 [1]: 0.0072 µM | IC50 [3]: 0.019 µM
SMILES: N#Cc1ccc(C(NCC2CC2)c2ccc(F)c(NC(=O)c3cc(C(F)(F)F)nn3-c3cccc(CN)c3)c2)cc1 (stereo not drawn)

IC50 [1]: 0.1 µM | IC50 [3]: > 1 µM
SMILES: NCc1cccc(-n2nc(C(F)(F)F)cc2C(=O)Nc2cc(F)cc(C(OCC3CC3)c3ccccc3)c2)c1 (stereo not drawn)

IC50 [1]: 0.651 µM
SMILES: NCc1cccc(-n2nc(C(F)(F)F)cc2C(=O)Nc2ccc(C(OCC3CC3)c3ccccc3)cc2F)c1 (stereo not drawn)

Cmax [7]: 673 ng/mL | IC50 [8]: > 50 µM | bioavailability [9]: 33% | Tmax [10]: 4.7 h | AUC(0-t) at 24 h [11]: 4150 ng·h/mL | AUC(0-t) at 24 h [12]: 1620 ng·h/mL | IC50 [13]: > 50 µM | IC50 [14]: > 50 µM | AUC(0-t) at 96 h [15]: 6180 ng·h/mL | half-life [16]: 10.1 h | Cmax [17]: 342 ng/mL | solubility [18]: 120 µg/mL (≈ 213 µM) | IC50 [19]: 3.97 µM | IC50 [20]: > 50 µM | AUC(0-t) at 24 h [21]: 4780 ng·h/mL | IC50 [22]: > 50 µM | half-life [23]: 22.7 h | clearance [24]: 27 mL/min/kg | half-life [25]: 18.5 h | Cmax [26]: 475 ng/mL | CL/F [27]: 81 mL/min/kg | Tmax [28]: 2 h | bioavailability [29]: 45% | IC50 [30]: 11 µM | clearance [31]: 30 mL/min/kg | solubility [32]: 160 µg/mL (≈ 284 µM) | AUC at 24 h [5]: 2210 ng·h/mL | AUC(0-t) at 24 h [33]: 974 ng·h/mL | CL/F [34]: 73 mL/min/kg | Cmax [35]: 773 ng/mL | half-life [36]: 18.3 h | Cmax [6]: 242 ng/mL | AUC(0-t) at 96 h [37]: 1860 ng·h/mL
SMILES: N#Cc1cccc([C@@H](NCC2CC2)c2ccc(F)c(NC(=O)c3cc(C(F)(F)F)nn3-c3cccc(CN)c3)c2)c1 (stereo in doubt) [BEROTRALSTAT]

IC50 [1]: 0.708 µM | IC50 [3]: > 1 µM
SMILES: NCc1cccc(-n2nc(C(F)(F)F)cc2C(=O)Nc2ccc(F)c(C(OCC3CC3)c3ccccc3)c2)c1 (stereo not drawn)

SMILES: NCc1cccc(-n2nc(C(F)(F)F)cc2C(=O)O)c1
IC50 [1]: 15.4 µM

SMILES: NCc1cccc(-n2nc(C(F)(F)F)cc2C(=O)Nc2ccc(-c3ccccc3)cc2)c1
IC50 [1]: 2.9 µM
